Starred links: 1 amine or outer side, 2 acyl side, 3 side chain; linkers in the order of their positions; H or OH if unused. Positions of bridges follow the written chain, without caps; N, C: chain ends. Non-standard residues stand in square brackets, D forms with d. Residues, ends and D or L forms follow the SMILES beside them. Chains are numbered I, II in the order given. Actinocin(9to1) = Cc1c2oc3c(C)ccc(C(=O)[*:1])c3nc-2c(C(=O)[*:2])c(N)c1=O; NMeV = CN[C@H](C(=O)O)C(C)C; Sar = CNCC(=O)O
Tests used:
[1] = Cytotoxicity against human HDF cells assessed as cell growth inhibition incubated for 72 hrs by SRB assay; type: toxicity, cell-based; settings: HDF cells (normal human dermal fibroblasts, NHDF)
[2] = Selectivity index, ratio of IC50 for cytotoxicity against human HDF cells to IC50 for anticancer activity against human SK-OV-3 cells; type: cell-based; settings: HDF cells versus SK-OV-3 cells, read-out: Ratio IC50
[3] = tested on: SK-OV-3; assay: Anticancer activity against human SK-OV-3 cells assessed as cell growth inhibition incubated for 72 hrs by SRB assay; type: functional, cell-based
[4] = tested on: SK-BR-3; assay: Anticancer activity against human SK-BR-3 cells assessed as cell growth inhibition incubated for 72 hrs by SRB assay; type: functional, cell-based
[5] = Selectivity index, ratio of IC50 for cytotoxicity against human HDF cells to IC50 for anticancer activity against human SK-BR-3 cells; type: toxicity, cell-based; settings: HDF cells versus SK-BR-3 cells, read-out: Ratio IC50
[6] = Selectivity index, ratio of IC50 for cytotoxicity against human HDF cells to IC50 for anticancer activity against human PC-3 cells; type: toxicity, cell-based; settings: HDF cells versus PC-3 cells, read-out: Ratio IC50
[7] = tested on: PC-3; assay: Anticancer activity against human PC-3 cells assessed as cell growth inhibition incubated for 72 hrs by SRB assay; type: functional, cell-based

Compound	IC50 at 72 h [1]	selectivity ratio [2]	IC50 ([3]; Homo sapiens, SK-OV-3, 72 h)	IC50 ([4]; Homo sapiens, SK-BR-3, 72 h)	selectivity ratio [5]	selectivity ratio [6]	IC50 ([7]; Homo sapiens, PC-3, 72 h)	IC50 ([3]; sk-ov-3)	IC50 ([4]; sk-br-3)	IC50 ([7]; pc-3)
CO[C@H]1/C=C\C=C(/C)C(=O)NC2=CC(=O)C(NCc3cn(Cc4ccc(Br)cc4)nn3)=C(C[C@@H](C)C[C@H](OC)[C@H](O)[C@@H](C)/C=C(\C)[C@@H]1OC(N)=O)C2=O	650 nM	2.41	270 nM	370 nM	1.76	2.1	310 nM	–	–	–
CO[C@H]1/C=C\C=C(/C)C(=O)NC2=CC(=O)C(NCc3cn(C4CCCCCC4)nn3)=C(C[C@@H](C)C[C@H](OC)[C@H](O)[C@@H](C)/C=C(\C)[C@@H]1OC(N)=O)C2=O	1700 nM	1.52	1120 nM	1030 nM	1.65	1.62	1050 nM	–	–	–
Cc1c2oc3c(C)ccc(C(=O)N[C@@H]4C(=O)N[C@H](C(C)C)C(=O)N5CCC[C@H]5C(=O)N(C)CC(=O)N(C)[C@@H](C(C)C)C(=O)O[C@@H]4C)c3nc-2c(C(=O)N[C@@H]2C(=O)N[C@H](C(C)C)C(=O)N3CCC[C@H]3C(=O)N(C)CC(=O)N(C)[C@@H](C(C)C)C(=O)O[C@@H]2C)c(N)c1=O [DACTINOMYCIN] (I: T[dV]P[Sar][NMeV] / II: T[dV]P[Sar][NMeV]; ester I:1-I:C, II:1-II:C; linker I:N-II:N via Actinocin(9to1))	1630 nM	2.63	620 nM	680 nM	2.4	2.3	710 nM	–	–	–
CO[C@H]1/C=C\C=C(/C)C(=O)NC2=CC(=O)C(NCc3cn([C@@H]4O[C@H](CO)[C@H](O)[C@H](O)[C@H]4O)nn3)=C(C[C@@H](C)C[C@H](OC)[C@H](O)[C@@H](C)/C=C(\C)[C@@H]1OC(N)=O)C2=O	990 nM	1.87	530 nM	570 nM	1.74	1.83	540 nM	–	–	–
CO[C@H]1/C=C\C=C(/C)C(=O)NC2=CC(=O)C(NCc3c[nH]nn3)=C(C[C@@H](C)C[C@H](OC)[C@H](O)[C@@H](C)/C=C(\C)[C@@H]1OC(N)=O)C2=O	1770 nM	2.57	690 nM	730 nM	2.42	2.57	690 nM	–	–	–
CO[C@H]1/C=C\C=C(/C)C(=O)NC2=CC(=O)C(NCCn3cc(CC(=O)O)nn3)=C(C[C@@H](C)C[C@H](OC)[C@H](O)[C@@H](C)/C=C(\C)[C@@H]1OC(N)=O)C2=O	3880 nM	1.45	2680 nM	2840 nM	1.37	1.83	2120 nM	–	–	–
CO[C@H]1/C=C\C=C(/C)C(=O)NC2=CC(=O)C(NCc3cn([C@@H]4OC[C@@H](OC(C)=O)[C@H](OC(C)=O)[C@H]4OC(C)=O)nn3)=C(C[C@@H](C)C[C@H](OC)[C@H](O)[C@@H](C)/C=C(\C)[C@@H]1OC(N)=O)C2=O	4590 nM	1.23	3730 nM	4360 nM	1.05	1.3	3520 nM	–	–	–
CO[C@H]1/C=C\C=C(/C)C(=O)NC2=CC(=O)C(NCc3cn([C@@H]4O[C@H](COCc5ccccc5)[C@@H](OCc5ccccc5)[C@H](OCc5ccccc5)[C@H]4NC(C)=O)nn3)=C(C[C@@H](C)C[C@H](OC)[C@H](O)[C@@H](C)/C=C(\C)[C@@H]1OC(N)=O)C2=O	1510 nM	1.91	790 nM	770 nM	1.96	1.62	930 nM	–	–	–
CO[C@H]1/C=C\C=C(/C)C(=O)NC2=CC(=O)C(NCc3cn(CC=C(C)C)nn3)=C(C[C@@H](C)C[C@H](OC)[C@H](O)[C@@H](C)/C=C(\C)[C@@H]1OC(N)=O)C2=O	3180 nM	1.47	2160 nM	2030 nM	1.57	1.15	2770 nM	–	–	–
CO[C@H]1/C=C\C=C(/C)C(=O)NC2=CC(=O)C(NCc3cn(Cc4ccc(C#N)cc4)nn3)=C(C[C@@H](C)C[C@H](OC)[C@H](O)[C@@H](C)/C=C(\C)[C@@H]1OC(N)=O)C2=O	1780 nM	1.89	940 nM	930 nM	1.91	2.09	850 nM	–	–	–
CO[C@H]1/C=C\C=C(/C)C(=O)NC2=CC(=O)C(NCCN=[N+]=[N-])=C(C[C@@H](C)C[C@H](OC)[C@H](O)[C@@H](C)/C=C(\C)[C@@H]1OC(N)=O)C2=O	2060 nM	2.17	950 nM	940 nM	2.19	2.26	910 nM	–	–	–
CO[C@H]1/C=C\C=C(/C)C(=O)NC2=CC(=O)C(NCc3cn(Cc4ccccc4)nn3)=C(C[C@@H](C)C[C@H](OC)[C@H](O)[C@@H](C)/C=C(\C)[C@@H]1OC(N)=O)C2=O	1280 nM	2.03	630 nM	500 nM	2.56	2.46	520 nM	–	–	–
CO[C@H]1/C=C\C=C(/C)C(=O)NC2=CC(=O)C(NCc3cn(CCN4C(=O)c5ccccc5C4=O)nn3)=C(C[C@@H](C)C[C@H](OC)[C@H](O)[C@@H](C)/C=C(\C)[C@@H]1OC(N)=O)C2=O	1960 nM	1.53	1280 nM	1220 nM	1.61	1.52	1290 nM	–	–	–
CO[C@H]1/C=C\C=C(/C)C(=O)NC2=CC(=O)C(NCc3cn([C@@H]4O[C@H](CO)[C@@H](O)[C@H](O)[C@H]4NC(C)=O)nn3)=C(C[C@@H](C)C[C@H](OC)[C@H](O)[C@@H](C)/C=C(\C)[C@@H]1OC(N)=O)C2=O	2130 nM	1.15	1860 nM	1750 nM	1.85	1.16	1840 nM	–	–	–
CO[C@H]1/C=C\C=C(/C)C(=O)NC2=CC(=O)C(NCc3cn(Cc4ccc(C)cc4)nn3)=C(C[C@@H](C)C[C@H](OC)[C@H](O)[C@@H](C)/C=C(\C)[C@@H]1OC(N)=O)C2=O	1170 nM	1.43	820 nM	990 nM	1.18	1.38	850 nM	–	–	–
CO[C@H]1/C=C\C=C(/C)C(=O)NC2=CC(=O)C(NCc3cn(Cc4ccc([N+](=O)[O-])cc4)nn3)=C(C[C@@H](C)C[C@H](OC)[C@H](O)[C@@H](C)/C=C(\C)[C@@H]1OC(N)=O)C2=O	780 nM	1.05	740 nM	740 nM	1.05	1.28	690 nM	–	–	–
CO[C@H]1/C=C\C=C(/C)C(=O)NC2=CC(=O)C(NCc3cn(CC4CCCCC4)nn3)=C(C[C@@H](C)C[C@H](OC)[C@H](O)[C@@H](C)/C=C(\C)[C@@H]1OC(N)=O)C2=O	2090 nM	1.48	1410 nM	1370 nM	1.53	1.53	1370 nM	–	–	–
CO[C@H]1/C=C\C=C(/C)C(=O)NC2=CC(=O)C(NCCn3cc(-c4ccccn4)nn3)=C(C[C@@H](C)C[C@H](OC)[C@H](O)[C@@H](C)/C=C(\C)[C@@H]1OC(N)=O)C2=O	2410 nM	1.85	1300 nM	1160 nM	2.08	1.99	1210 nM	–	–	–
COC1=C2C[C@@H](C)C[C@H](OC)[C@H](O)[C@@H](C)/C=C(\C)[C@H](OC(N)=O)[C@@H](OC)/C=C\C=C(/C)C(=O)NC(=CC1=O)C2=O [GELDANAMYCIN]	1050 nM	–	–	–	–	–	–	640 nM	580 nM	600 nM
